# According to patent US10428087B2, “Pyrimidinones as PI3K inhibitors” (Incyte Corporation, priority 2009, dated 2019):
# Structures can show the parent of a compound that is named as a salt.
# Legend:
# [1] = tested on: B cells; assay: B cell proliferation assay (Example B1); type: cell-based; settings: purified human B cells, anti-human IgM, [3H]-thymidine
# Experimental: To acquire B cells, human PBMC were isolated from the peripheral blood of normal, drug free donors by standard density gradient centrifugation on Ficoll-Hypague (GE Healthcare, Piscataway, N.J.) and incubated with anti-CD19 microbeads (Miltenyi Biotech, Auburn, Calif.). The B cells were then purified by positive immunosorting using an autoMacs (Miltenyi Biotech) according to the manufacturer's instruction.
# The purified B cells (2×10^5/well/200 μL) were cultured in 96-well ultra-low binding plates (Corning, Corning, N.Y.) in RPMI1640, 10% FBS and goat F(ab′)2 anti-human IgM ([…]) (Invitrogen, Carlsbad, Calif.), in the presence of different amount of test compounds, […] [^3H]-thymidine (1 μCi/well) (PerkinElmer, Boston, Mass.) in PBS was then added to the B cell cultures for an additional 12 hrs before the incorporated radioactivity was separated by filtration with water through GF/B filters (Packard Bioscience, Meriden, Conn.) and measured by liquid scintillation counting with a TopCount (Packard Bioscience). […] See Table 2 for data related to compounds of the invention.
# [2] = tested on: Pfeiffer cell line (diffuse large B cell lymphoma); assay: Pfeiffer cell proliferation assay (Example B2); type: cell-based; settings: Pfeiffer cells, [3H]-thymidine
Structure (SMILES),IC50 [1],IC50 [2],IC50 ([1]; B-cell),"IC50 ([2]; Homo sapiens, Pfeiffer)"
"Cc1csc2nc(C(C)Nc3ncnc4[nH]cnc34)c(-c3cccc(F)c3)c(=O)n12 (stereo not shown) [Example 30, 6-(3-fluorophenyl)-3-methyl-7-[1-(9H-purin-6-ylamino)ethyl]-5H-[1,3]thiazolo[3,2-a]pyrimidin-5-one]",< 50 nM,< 50 nM,–,–
"CCC(Nc1ncnc2[nH]cnc12)c1nc2cccc(C)n2c(=O)c1-c1cc(F)cc(F)c1 (stereo not shown) [Example 5, 3-(3,5-difluorophenyl)-6-methyl-2-[1-(9H-purin-6-ylamino)propyl]-4H-pyrido[1,2-a]pyrimidin-4-one]",–,–,< 50 nM,50 to 100 nM
"Cc1csc2nc(C(C)Nc3nc(N)nc4[nH]cnc34)c(-c3cc(F)cc(F)c3)c(=O)n12 (stereo not shown) [Example 13, 7-{1-[(2-amino-9H-purin-6-yl)amino]ethyl}-6-(3,5-difluorophenyl)-3-methyl-5H-[1,3]thiazolo[3,2-a]pyrimidin-5-one]",–,–,< 50 nM,–
"Cc1csc2nc(C(C)Nc3nc(N)nc4[nH]cnc34)c(-c3cccc(F)c3)c(=O)n12 (stereo not shown) [Example 11, 7-{1-[(2-amino-9H-purin-6-yl)amino]ethyl}-6-(3-fluorophenyl)-3-methyl-5H-[1,3]thiazolo[3,2-a]pyrimidin-5-one]",–,–,< 50 nM,< 50 nM
"CCC(Nc1ncnc2[nH]cnc12)c1nc2cccc(C)n2c(=O)c1-c1cncc(F)c1 (stereo not shown) [Example 3, 3-(5-fluoropyridin-3-yl)-6-methyl-2-[1-(9H-purin-6-ylamino)propyl]-4H-pyrido[1,2-a]pyrimidin-4-one]",–,–,< 50 nM,100 to 500 nM
"Cc1cccc2nc(C(C)Nc3ncnc4[nH]cnc34)c(-c3cccc(F)c3)c(=O)n12 (single isomer, unassigned) [Example 71, 3-(3-Fluorophenyl)-6-methyl-2-[1-(9H-purin-6-ylamino)ethyl]-4H-pyrido[1,2-a]pyrimidin-4-one trifluoroacetic acid salt]",–,–,< 50 nM,–
"Cc1csc2nc(C(C)Nc3ncnc4[nH]cnc34)c(-c3ccccc3)c(=O)n12 (stereo not shown) [Example 8, 3-methyl-6-phenyl-7-[1-(9H-purin-6-ylamino)ethyl]-5H-[1,3]thiazolo[3,2-a]pyrimidin-5-one]",–,–,< 50 nM,< 50 nM
"CCC(Nc1ncnc2[nH]cnc12)c1nc2cccc(C)n2c(=O)c1-c1cn[nH]c1 (stereo not shown) [Example 7, 6-methyl-2-[1-(9H-purin-6-ylamino)propyl]-3-(1H-pyrazol-4-yl)-4H-pyrido[1,2-a]pyrimidin-4-one]",–,–,> 500 nM,500 to 1000 nM
"CCC(Nc1ncnc2[nH]cnc12)c1nc2cccc(C)n2c(=O)c1-c1ccccc1 (stereo not shown) [Example 2, 6-methyl-3-phenyl-2-[1-(9H-purin-6-ylamino)propyl]-4H-pyrido[1,2-a]pyrimidin-4-one]",–,–,100 to 500 nM,< 50 nM
"Cc1csc2nc(C(C)Nc3nc(N)nc4[nH]cnc34)c(-c3ccccc3)c(=O)n12 (stereo not shown) [Example 9, 7-{1-[(2-amino-9H-purin-6-yl)amino]ethyl}-3-methyl-6-phenyl-5H-[1,3]thiazolo[3,2-a]pyrimidin-5-one]",–,–,< 50 nM,< 50 nM
"CCC(Nc1ncnc2[nH]cnc12)c1nc2cccc(C)n2c(=O)c1-c1cccnc1F (stereo not shown) [Example 6, 3-(2-fluoropyridin-3-yl)-6-methyl-2-[1-(9H-purin-6-ylamino)propyl]-4H-pyrido[1,2-a]pyrimidin-4-one]",–,–,50 to 100 nM,100 to 500 nM
"CCC(Nc1ncnc2[nH]cnc12)c1nc2cccc(C)n2c(=O)c1-c1cccc(F)c1 (stereo not shown) [Example 4, 3-(3-fluorophenyl)-6-methyl-2-[1-(9H-purin-6-ylamino)propyl]-4H-pyrido[1,2-a]pyrimidin-4-one]",–,–,< 50 nM,100 to 500 nM
"Cc1csc2nc(C(C)Nc3ncnc4[nH]cnc34)c(-c3cccc(F)c3)c(=O)n12 (stereo not shown) [Example 10, 6-(3-fluorophenyl)-3-methyl-7-[1-(9H-purin-6-ylamino)ethyl]-5H-[1,3]thiazolo[3,2-a]pyrimidin-5-one]",–,–,< 50 nM,< 50 nM
"Cc1cccc2nc(C(C)n3cnc4c(N)ncnc43)c(-c3ccccc3)c(=O)n12 (stereo not shown) [Example 1, 2-[1-(6-amino-9H-purin-9-yl)ethyl]-6-methyl-3-phenyl-4H-pyrido[1,2-a]pyrimidin-4-one]",–,–,< 50 nM,100 to 500 nM
"Cc1csc2nc(C(C)Nc3ncnc4[nH]cnc34)c(-c3ccncc3)c(=O)n12 (stereo not shown) [Example 19, 3-methyl-7-[1-(9H-purin-6-ylamino)ethyl]-6-pyridin-4-yl-5H-[1,3]thiazolo[3,2-a]pyrimidin-5-one]",–,–,–,> 1000 nM
"Cc1csc2nc([C@H](C)Nc3ncnc4[nH]cnc34)c(-c3cccc(F)c3)c(=O)n12 [Example 15, (S)-7-(1-(9H-purin-6-ylamino)ethyl)-6-(3-fluorophenyl)-3-methyl-5H-thiazolo[3,2-a]pyrimidin-5-one]",–,–,< 50 nM,–
